One data set concerns SARS-CoV-2. Description: microbe, parasite or virus in culture. Conditions: Severe acute respiratory syndrome coronavirus 2, Vero C1008, read-out: Inhibition rate (%). The class given is cell-based.
A further data set relates to 60 human cell lines. Description: Cytotoxicity of HHT in 60 human cell lines. Conditions: 1 μM (or lower) for 48 hours; cell lines other than the few that died obviously, of 60 human cell lines.

For the compound `COC(=O)C[C@](O)(CCCC(C)(C)O)C(=O)O[C@@H]1C(OC)=C[C@]23CCCN2CCc2cc4c(cc2[C@H]13)OCO4` [HHT, Homoharringtonine], the inhibition at 0.186 µM in the data set on SARS-CoV-2 (drug concentration 0.186 μM) stood at 31.7 ± 7.64%. Also, the inhibition at 0.375 µM in the data set with SARS-CoV-2 (drug concentration 0.375 μM) is 60 ± 8.66%. Also, the inhibition at 0.75 µM in the data set on SARS-CoV-2 (drug concentration 0.75 μM) worked out at 86.7 ± 2.89%. Also, the inhibition at 1.5 µM in the data set on SARS-CoV-2 (drug concentration 1.50 μM) stood at 93.3 ± 2.89%. The cell viability result with 60 human cell lines is recorded as “about 100%”.
